The values that follow are results of earlier work, collected in patent US20090162858A1, “Orthogonal chemical inducer of dimerization” (priority 2007, published 2009).

The subject of the data set is wild type Saccrharomyces cerevisiae. The note with it: [Game, 1975].

In the case of `COc1cc(Cc2cnc(N)nc2N)cc(OC)c1OC` [Trimethoprim, 2,4-diamino-5-(3,4,5-trimethoxybenzyl)pyrimidine], the “growth of wild type yeast” value is on record as “does not”. Take `CN(Cc1cnc2nc(N)nc(N)c2n1)c1ccc(C(=O)N[C@@H](CCC(=O)O)C(=O)O)cc1` [Methotrexate]: the “growth of wild type yeast” value was “inhibits growth”.
